Experimental data published in ChEMBL document CHEMBL1201862, “PubChem BioAssay data set” (2004).
Blank lines part the entries; values can stand above or below the compound they belong to. Active and inactive are the calls of the source.

Experiments:
Format in all cases: functional
[1] = target: T1, Alkaline phosphatase, tissue-nonspecific isozyme (Homo sapiens, UniProt P05186); assay: inhibition of tissue-nonspecific alkaline phosphatase – biochemical, dose response (AID 488882)
T1 sequence (P05186 whole entry): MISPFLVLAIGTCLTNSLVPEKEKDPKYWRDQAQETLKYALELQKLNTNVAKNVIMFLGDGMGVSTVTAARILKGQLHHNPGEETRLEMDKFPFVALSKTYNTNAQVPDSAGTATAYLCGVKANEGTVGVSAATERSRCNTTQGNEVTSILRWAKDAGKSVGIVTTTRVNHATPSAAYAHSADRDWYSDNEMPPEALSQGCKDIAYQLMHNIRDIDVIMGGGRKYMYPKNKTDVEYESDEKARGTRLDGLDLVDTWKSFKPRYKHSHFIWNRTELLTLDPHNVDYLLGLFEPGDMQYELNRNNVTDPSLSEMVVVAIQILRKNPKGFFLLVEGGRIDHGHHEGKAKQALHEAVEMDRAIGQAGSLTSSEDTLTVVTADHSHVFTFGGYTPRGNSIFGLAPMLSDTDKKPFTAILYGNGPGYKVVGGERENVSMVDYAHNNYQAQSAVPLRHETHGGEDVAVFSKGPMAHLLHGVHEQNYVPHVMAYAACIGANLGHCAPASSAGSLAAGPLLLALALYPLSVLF

[2] = target: T2, Sentrin-specific protease 7 (Homo sapiens, UniProt Q9BQF6); assay: inhibition of human SENP7 cleavage activity – biochemical, luminescence, SAR follow-up (AID 504497)
T2 sequence (Q9BQF6 whole entry): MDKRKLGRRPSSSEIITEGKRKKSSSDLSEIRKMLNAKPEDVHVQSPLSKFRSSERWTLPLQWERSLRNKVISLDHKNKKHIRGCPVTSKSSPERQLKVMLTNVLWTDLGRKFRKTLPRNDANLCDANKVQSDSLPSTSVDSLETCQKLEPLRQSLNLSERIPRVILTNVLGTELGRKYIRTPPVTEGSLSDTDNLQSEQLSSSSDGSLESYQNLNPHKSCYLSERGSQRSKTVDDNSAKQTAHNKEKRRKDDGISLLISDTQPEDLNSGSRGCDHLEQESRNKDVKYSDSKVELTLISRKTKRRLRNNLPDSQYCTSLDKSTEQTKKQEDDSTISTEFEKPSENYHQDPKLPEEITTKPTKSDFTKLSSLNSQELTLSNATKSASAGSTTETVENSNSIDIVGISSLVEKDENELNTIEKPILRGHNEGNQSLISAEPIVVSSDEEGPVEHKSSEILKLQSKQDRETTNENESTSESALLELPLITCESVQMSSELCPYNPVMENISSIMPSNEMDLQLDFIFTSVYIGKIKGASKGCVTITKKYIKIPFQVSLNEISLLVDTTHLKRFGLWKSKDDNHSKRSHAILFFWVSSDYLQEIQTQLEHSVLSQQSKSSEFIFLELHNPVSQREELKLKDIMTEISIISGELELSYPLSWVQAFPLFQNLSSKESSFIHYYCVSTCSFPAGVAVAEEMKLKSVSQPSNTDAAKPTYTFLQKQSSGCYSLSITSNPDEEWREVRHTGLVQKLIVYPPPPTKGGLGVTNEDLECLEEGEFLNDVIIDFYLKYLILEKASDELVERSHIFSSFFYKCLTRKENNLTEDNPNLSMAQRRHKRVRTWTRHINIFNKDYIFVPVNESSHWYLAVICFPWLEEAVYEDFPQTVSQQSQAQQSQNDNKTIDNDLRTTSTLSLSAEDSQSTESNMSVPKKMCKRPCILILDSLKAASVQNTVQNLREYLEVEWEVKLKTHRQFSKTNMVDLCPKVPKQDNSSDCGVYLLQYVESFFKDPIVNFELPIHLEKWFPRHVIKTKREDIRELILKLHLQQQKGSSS

[3] = target: Tyrosine-protein kinase receptor TYRO3 (Homo sapiens, UniProt Q06418);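 further: TYRO3 value obtained as one member of a kinome-wide profiling panel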
[4] = target: Tyrosine-protein kinase ITK/TSK (Homo sapiens, UniProt Q08881);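 further: affinity for ITK measured as one member of a broad kinase panel profiling binding across the kinome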
[5] = target: Proto-oncogene tyrosine-protein kinase ROS (Homo sapiens, UniProt P08922);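 further: ROS1 tested as one member of a kinome-wide kinase panel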
[6] = target: Homeodomain-interacting protein kinase 2 (Homo sapiens, UniProt Q9H2X6);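 further: measured within a kinome-wide kinase profiling panel, HIPK2 being one panel member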
[7] = target: Tyrosine-protein kinase Srms (Homo sapiens, UniProt Q9H3Y6);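 further: SRMS measured as one member of a kinome-wide kinase profiling panel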
Aurora kinase B = Aurora kinase B (Homo sapiens, UniProt Q96GD4)
SUMO-activating enzyme = SUMO-activating enzyme (Homo sapiens, UniProt Q9UBT2); assay: blockers of UBC9-mediated SUMO conjugation – biochemical, AlphaScreen, SUMOylation inhibitor project, confirmation (AID 2018)
Hexokinase-1 = target: T3, Hexokinase-1 (Homo sapiens, UniProt P19367); assay: hexokinase 1 activity inhibitors, potency – biochemical, set 2, resazurin fluorescence coupled readout, selectivity assay for HKDC1 inhibitor project, SAR follow-up (AID 588356)
T3 sequence (P19367 whole entry): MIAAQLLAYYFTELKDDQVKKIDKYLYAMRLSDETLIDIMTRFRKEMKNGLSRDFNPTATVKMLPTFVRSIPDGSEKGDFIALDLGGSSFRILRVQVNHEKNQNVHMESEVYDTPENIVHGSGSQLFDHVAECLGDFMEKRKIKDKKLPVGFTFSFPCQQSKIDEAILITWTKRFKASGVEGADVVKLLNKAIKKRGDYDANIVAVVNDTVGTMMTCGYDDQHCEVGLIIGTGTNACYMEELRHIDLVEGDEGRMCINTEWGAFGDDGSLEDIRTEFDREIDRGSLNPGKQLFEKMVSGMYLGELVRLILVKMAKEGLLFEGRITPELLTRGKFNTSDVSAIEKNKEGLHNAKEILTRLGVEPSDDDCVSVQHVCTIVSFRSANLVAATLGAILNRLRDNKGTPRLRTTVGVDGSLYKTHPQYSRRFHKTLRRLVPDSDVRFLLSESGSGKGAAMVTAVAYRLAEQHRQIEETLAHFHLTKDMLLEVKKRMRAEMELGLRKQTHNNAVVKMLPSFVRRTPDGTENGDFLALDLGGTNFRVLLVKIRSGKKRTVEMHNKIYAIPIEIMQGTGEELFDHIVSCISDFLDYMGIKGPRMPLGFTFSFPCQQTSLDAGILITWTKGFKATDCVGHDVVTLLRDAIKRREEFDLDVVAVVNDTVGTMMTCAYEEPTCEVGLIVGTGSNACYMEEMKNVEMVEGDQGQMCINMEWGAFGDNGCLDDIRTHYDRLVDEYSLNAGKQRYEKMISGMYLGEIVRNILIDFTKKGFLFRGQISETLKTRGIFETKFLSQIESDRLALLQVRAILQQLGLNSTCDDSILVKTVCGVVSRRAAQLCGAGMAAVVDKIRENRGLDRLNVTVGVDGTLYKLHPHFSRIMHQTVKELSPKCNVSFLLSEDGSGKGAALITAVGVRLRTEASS

Chain of Homeodomain-interacting protein kinase 2 (Q9H2X6 whole entry): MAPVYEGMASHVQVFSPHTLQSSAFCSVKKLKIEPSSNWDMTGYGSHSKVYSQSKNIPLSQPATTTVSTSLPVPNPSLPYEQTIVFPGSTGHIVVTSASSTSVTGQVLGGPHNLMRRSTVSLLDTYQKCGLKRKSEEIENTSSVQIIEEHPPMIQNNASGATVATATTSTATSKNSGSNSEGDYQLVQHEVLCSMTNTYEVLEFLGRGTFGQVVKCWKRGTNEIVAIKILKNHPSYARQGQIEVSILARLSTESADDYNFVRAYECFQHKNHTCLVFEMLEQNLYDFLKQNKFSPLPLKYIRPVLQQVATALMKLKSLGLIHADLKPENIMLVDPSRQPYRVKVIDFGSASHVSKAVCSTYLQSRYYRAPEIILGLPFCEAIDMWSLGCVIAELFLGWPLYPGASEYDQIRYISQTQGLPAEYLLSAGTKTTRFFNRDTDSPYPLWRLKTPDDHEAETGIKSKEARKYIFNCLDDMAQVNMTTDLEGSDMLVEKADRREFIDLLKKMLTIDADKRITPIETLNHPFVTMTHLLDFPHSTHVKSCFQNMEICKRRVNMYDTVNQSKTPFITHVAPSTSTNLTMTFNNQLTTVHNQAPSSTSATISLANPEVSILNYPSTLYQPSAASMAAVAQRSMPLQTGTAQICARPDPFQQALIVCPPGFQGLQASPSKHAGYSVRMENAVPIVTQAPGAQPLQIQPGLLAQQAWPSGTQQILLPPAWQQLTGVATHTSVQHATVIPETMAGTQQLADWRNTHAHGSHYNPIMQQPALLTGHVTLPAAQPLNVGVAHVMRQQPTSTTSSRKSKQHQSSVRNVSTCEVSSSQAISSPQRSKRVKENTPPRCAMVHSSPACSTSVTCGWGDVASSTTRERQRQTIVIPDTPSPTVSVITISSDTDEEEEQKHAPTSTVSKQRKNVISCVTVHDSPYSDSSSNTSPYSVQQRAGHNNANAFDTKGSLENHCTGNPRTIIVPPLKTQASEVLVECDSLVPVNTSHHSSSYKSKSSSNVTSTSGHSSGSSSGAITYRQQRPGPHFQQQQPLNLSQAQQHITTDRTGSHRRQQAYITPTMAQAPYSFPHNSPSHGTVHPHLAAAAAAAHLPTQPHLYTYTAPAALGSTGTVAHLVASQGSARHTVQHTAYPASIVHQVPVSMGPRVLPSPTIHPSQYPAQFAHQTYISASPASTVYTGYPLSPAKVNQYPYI
Chain of Aurora kinase B (Q96GD4 whole entry): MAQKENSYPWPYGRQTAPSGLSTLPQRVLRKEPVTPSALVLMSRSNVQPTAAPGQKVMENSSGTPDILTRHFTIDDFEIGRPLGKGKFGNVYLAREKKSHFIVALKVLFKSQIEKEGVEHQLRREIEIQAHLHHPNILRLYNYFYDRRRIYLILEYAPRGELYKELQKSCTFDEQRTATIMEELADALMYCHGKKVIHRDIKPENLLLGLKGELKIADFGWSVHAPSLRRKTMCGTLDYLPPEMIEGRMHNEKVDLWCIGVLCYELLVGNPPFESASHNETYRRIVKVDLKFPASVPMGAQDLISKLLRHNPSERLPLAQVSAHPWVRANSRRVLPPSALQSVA
Chain of Tyrosine-protein kinase receptor TYRO3 (Q06418 whole entry): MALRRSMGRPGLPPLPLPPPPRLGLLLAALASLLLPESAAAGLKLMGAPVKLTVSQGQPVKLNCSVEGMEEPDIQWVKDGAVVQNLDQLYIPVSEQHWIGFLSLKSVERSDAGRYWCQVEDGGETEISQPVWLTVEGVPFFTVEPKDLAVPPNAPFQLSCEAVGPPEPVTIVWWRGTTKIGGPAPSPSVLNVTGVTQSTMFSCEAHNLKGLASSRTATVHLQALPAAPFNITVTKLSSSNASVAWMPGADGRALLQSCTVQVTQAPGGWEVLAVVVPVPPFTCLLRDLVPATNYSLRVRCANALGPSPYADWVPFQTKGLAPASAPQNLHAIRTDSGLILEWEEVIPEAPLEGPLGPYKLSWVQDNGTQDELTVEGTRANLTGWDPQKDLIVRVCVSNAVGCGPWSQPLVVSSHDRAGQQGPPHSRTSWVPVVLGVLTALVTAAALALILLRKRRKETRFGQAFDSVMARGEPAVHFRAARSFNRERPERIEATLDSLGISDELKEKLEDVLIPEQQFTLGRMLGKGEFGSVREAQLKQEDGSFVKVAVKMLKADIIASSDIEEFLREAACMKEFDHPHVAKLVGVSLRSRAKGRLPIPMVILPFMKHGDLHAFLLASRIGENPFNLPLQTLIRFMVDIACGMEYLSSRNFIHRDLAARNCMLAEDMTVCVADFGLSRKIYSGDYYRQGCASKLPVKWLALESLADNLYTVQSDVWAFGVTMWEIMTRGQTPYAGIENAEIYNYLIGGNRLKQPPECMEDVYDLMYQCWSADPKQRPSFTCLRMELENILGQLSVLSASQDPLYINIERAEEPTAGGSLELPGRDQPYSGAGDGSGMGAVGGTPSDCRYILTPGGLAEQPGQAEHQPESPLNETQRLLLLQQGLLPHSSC
Chain of Tyrosine-protein kinase Srms (Q9H3Y6 whole entry): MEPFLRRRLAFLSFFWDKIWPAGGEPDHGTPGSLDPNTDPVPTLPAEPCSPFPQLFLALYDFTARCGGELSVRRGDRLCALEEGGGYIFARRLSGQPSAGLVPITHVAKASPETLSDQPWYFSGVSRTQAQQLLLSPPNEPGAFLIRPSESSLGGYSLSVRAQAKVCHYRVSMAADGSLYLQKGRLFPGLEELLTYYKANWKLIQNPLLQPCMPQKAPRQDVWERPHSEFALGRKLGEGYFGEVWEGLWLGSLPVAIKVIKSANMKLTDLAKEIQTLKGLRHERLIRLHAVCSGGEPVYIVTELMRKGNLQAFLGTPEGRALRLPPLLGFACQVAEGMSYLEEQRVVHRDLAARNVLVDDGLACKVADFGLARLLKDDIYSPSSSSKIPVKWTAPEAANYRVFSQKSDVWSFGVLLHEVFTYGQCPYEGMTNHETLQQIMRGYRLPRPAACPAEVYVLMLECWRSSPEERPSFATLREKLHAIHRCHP
Chain of SUMO-activating enzyme (Q9UBE0 whole entry): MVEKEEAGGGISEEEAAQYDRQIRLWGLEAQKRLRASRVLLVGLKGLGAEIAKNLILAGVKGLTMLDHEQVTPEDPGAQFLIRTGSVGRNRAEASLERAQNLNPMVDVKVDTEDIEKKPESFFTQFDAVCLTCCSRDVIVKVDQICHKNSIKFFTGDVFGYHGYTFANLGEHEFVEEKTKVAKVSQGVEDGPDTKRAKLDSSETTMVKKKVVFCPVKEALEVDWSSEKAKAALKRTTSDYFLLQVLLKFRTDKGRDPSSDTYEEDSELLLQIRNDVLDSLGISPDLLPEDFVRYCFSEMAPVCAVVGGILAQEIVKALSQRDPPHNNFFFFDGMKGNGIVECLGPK
Chain of SUMO-activating enzyme (Q9UBT2 whole entry): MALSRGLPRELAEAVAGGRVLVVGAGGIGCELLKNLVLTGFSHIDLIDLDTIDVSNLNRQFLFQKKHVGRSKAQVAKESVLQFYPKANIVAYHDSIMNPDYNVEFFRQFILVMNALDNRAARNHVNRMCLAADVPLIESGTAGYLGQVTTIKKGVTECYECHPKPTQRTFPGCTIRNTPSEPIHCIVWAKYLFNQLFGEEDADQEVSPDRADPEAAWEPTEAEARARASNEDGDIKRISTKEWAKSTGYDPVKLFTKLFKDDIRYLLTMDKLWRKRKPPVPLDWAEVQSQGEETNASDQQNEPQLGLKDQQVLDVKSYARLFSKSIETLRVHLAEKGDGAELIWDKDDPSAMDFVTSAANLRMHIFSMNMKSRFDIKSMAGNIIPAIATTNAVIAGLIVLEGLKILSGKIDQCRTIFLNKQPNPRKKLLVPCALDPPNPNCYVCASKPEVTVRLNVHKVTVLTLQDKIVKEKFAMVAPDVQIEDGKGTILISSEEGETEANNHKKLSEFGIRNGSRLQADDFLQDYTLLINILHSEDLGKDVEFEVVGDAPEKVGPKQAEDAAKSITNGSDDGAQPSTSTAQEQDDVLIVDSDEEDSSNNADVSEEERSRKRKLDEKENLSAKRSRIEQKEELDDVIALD
Chain of Tyrosine-protein kinase ITK/TSK (Q08881 whole entry): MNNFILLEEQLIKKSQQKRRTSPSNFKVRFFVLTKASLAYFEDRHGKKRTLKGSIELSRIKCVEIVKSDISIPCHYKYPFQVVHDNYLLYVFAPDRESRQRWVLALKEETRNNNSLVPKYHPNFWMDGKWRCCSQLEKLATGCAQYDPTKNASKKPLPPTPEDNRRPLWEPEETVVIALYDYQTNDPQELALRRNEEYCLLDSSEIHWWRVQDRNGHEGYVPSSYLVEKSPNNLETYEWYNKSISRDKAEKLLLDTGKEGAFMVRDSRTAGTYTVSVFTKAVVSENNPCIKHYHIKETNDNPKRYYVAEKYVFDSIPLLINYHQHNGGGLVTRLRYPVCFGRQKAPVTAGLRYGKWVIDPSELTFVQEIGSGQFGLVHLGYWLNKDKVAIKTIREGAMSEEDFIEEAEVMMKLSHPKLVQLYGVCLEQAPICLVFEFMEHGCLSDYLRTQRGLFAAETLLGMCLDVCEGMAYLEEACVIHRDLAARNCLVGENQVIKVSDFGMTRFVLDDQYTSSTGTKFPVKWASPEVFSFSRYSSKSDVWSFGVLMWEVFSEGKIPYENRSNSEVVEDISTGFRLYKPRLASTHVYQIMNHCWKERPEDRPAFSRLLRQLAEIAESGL

SMILES: Oc1ccc(N=Nc2c(O)ccc3ccccc23)cc1
IC50 [1]: 16.5 µM (active)

SMILES: O=C(CCc1ccccc1)NNc1cc(N2CCCCC2)nc(N2CCCCC2)n1
IC50 [2]: 57.9 µM (active)

Ki [3]: > 2 µM (inactive)
Ki [4]: > 1.58 µM (inactive)
Ki [5]: 631 nM (active)
Ki [6]: 79.4 nM (active)
Ki [7]: > 1.58 µM (inactive)
Ki (Aurora kinase B): 200 nM (active)
SMILES: Cc1n[nH]c2ccc(-c3cncc(OCC(N)Cc4cccc(Cl)c4)c3)cc12 (stereo not given)

SMILES: CC(=O)NC1C(=O)N(CCN2CCOCC2)c2ccc(F)cc21 (stereo not given)
IC50 (SUMO-activating enzyme): 5.82 µM (active)
IC50 (Hexokinase-1): > 80 µM (inactive)
